# Data reported in publication PMC11696576, “Next generation thiazolyl ketone inhibitors of cytosolic phospholipase A2 α for targeted cancer therapy” (Nature Communications, 2025).
# “And” between values parts separate entries of the source, which are not always exact repeats. Identical values can stand only once.
# Columns and labels:
# CCRF-CEM cells = experiment: intracellular ROS, ROS-red staining and flow cytometry, CCRF-CEM; format: cell-based, human; set-up: ROS Negative Cells: unit not given here; settings: for ROS Negative Cells / ROS Positive Cells: listed as AVX420
# Description: Data are the mean ± stdev of 3 biological replicates. […] Data are the mean ± stdev of 3 biological replicates.
# Rather, when combined with AVX420, exogenous AA augmented cell death (Fig. 6e). […] The response occurred within 1 h, peaked at 8–12 h, and preceded the loss of cell viability (Fig. S9a, b).
# After treatment, cells were stained with cellular ROS Assay Kit (Cat. No. ab186029; Abcam, Cambridge, United Kingdom) following the manufacturer’s instructions, and ROS-positive cells were quantified by flow cytometry using either the NovoCyte flow cytometer, and Novoexpress Software v1.5.0 from Agilent Technologies (Santa Clara, USA) or the CytoFLEX flow cytometer and CytExpert analysis software v 2.5 from Beckman Coulter (California, United States). An example showing the gating strategy used to assess ROS-Red staining is found in Fig. S9d.
# Figure S9. Intracellular ROS accumulation and cell death. a. Time dependency of the in-crease in iROS following treatment with AVX420 in CCRF-CEM cells as measured by ROS-red stain-ing. Data are the mean ±stdev from ≥2 biological replicates b. […]
# ±stdev of ≥2 biological replicates c. intracellular ROS measurements in CCRF-CEM cells treated with 0.5 µM AVX420 in the presence of 20 µM arachidonic acid (AA) or 5 µM liproxstatin (Lip) for 4 hours. Data are the mean ± stdev of 2 biological replicates. d. […]
# analysis of ROS Red staining by flow cytometry. (i) Gating of live cells using FSC-H versus SSC-H.
# (ii) Gating based on ROS Deep Red staining under control conditions and after treatment with (iii) […]
# (§1) (1 picture or pasted object on this page, not shown here)
# PBMCs = experiment: viability of PBMCs (CTG and propidium iodide exclusion); format: cell-based, human; settings: for PI Negative (Figure S8b) / PI Positive (Figure S8b): replicates; for PI Negative (Figure S8b) / PI Positive (Figure S8b) / PBMC viability relative to 0 µM = 100 (Figure S8a): listed as AVX420
# Description: (§2) Propidium iodide exclusion was used to assess cell death by flow cytometry. After treatment, the cells were washed once with PBS and stained with 1.4 μg/mL propidium iodide (PI) for 5 min before quantification of PI negative and positive cells using a CytoFLEX flow cytometer (California, United States). An example of the gating strategy to assess PI staining can be found in Fig. S8c. […]
# (§3) cells. a. CTG assays were used to assess viability of PBMCs isolated from human blood after treatment with vehicle control (DMSO) or AVX420 at the indicated doses for either (i) 24 hours or (ii) 72 hours. Data are the mean ±stdev of 4 or 5 biological replicates respectively. b. The propidium iodide exclusion assay was used to assess vi-ability of ungated PBMCs treated with AVX420 at the indicated doses for 24 hours .
# (§4) Data are the mean ±stdev from 8 biological replicates (1-16 µM) and 5 biological rep- […]
# (§5) iodide exclusion in CD3+ lymphocytes (T-cells). Cells appearing in the bottom right quadrant are PI-negative (live) T-cells while cells in the top right quadrant are PI-posi- […]
# as §1
# [1] = as above; format: cell-based, human; settings: human, read-out: PBMC viability relative to 0 µM = 100 (Figure S8a)
# Description: as §2, §3, §4, §5, §1
# recombinant human cPLA2α = biological target: T1, recombinant human cPLA2α (Homo sapiens, UniProt P47712); set-up: method as in PMID 25152071; settings: previously published data ref 19, cited from earlier work
# T1 sequence (P47712 1-749): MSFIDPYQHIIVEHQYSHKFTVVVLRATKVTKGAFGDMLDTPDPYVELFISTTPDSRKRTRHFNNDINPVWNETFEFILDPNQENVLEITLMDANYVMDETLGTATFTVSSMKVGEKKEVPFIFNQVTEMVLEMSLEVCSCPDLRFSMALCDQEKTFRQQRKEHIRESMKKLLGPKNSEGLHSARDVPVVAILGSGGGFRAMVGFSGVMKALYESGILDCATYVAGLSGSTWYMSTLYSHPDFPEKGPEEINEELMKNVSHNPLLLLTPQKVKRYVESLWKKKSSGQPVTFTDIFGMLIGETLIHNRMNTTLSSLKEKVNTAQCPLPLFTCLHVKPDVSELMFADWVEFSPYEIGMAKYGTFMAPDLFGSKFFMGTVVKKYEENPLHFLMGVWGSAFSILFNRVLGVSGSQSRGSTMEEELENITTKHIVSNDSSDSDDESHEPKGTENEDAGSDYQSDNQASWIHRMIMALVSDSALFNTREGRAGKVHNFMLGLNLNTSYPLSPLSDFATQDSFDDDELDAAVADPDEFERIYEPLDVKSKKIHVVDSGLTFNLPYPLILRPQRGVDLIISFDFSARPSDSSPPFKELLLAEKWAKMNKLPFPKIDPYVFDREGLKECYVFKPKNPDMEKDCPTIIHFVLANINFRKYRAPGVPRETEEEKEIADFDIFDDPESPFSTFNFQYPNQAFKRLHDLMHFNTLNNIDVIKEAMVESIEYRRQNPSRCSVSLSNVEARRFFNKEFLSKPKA
smiles,measurement,setting,value
CCCCCCCOc1ccc(OCC(=O)c2nc(C(=O)OC)cs2)cc1 [GK420],time of iROS peak,CCRF-CEM cells; CCRF-CEM (Fig. S9a),8 to 12 h
same,time to iROS response,CCRF-CEM cells; CCRF-CEM (Fig. S9a),≤ 1 h
same,ROS Negative Cells,"CCRF-CEM cells; CCRF-CEM, 0.25 µM",70 and 65 and 71 and 61
same,ROS Positive Cells,"CCRF-CEM cells; CCRF-CEM, 0.25 µM",39 and 30 and 35 and 29
same,ROS Negative Cells,"CCRF-CEM cells; CCRF-CEM, 0.5 µM",34 and 29 and 30 and 32 and 33
same,ROS Positive Cells,"CCRF-CEM cells; CCRF-CEM, 0.5 µM",70 and 68 and 67 and 66 and 71
same,ROS Negative Cells,"CCRF-CEM cells; CCRF-CEM, 1 µM",13 and 15 and 12 and 11
same,ROS Positive Cells,"CCRF-CEM cells; CCRF-CEM, 1 µM",89 and 87 and 85 and 88
same,ROS Negative Cells,"CCRF-CEM cells; CCRF-CEM, 2 µM",8 and 6 and 9 and 10
same,ROS Positive Cells,"CCRF-CEM cells; CCRF-CEM, 2 µM",90 and 92 and 94 and 91
same,intracellular ROS (iROS),"CCRF-CEM cells; CCRF-CEM, 4 h",dose-dependent increase
same,PI Negative (Figure S8b),PBMCs; 0.5 µM,87 (3×) and 88 and 86 (2×) and 81 and 79
same,PI Positive (Figure S8b),PBMCs; 0.5 µM,12 and 14 (2×) and 13 (3×) and 19 and 21
same,PI Negative (Figure S8b),PBMCs; 1 µM,86 (3×) and 88 and 87 (2×) and 81 and 79
same,PI Positive (Figure S8b),PBMCs; 1 µM,12 and 14 (3×) and 13 (2×) and 19 and 21
same,PI Negative (Figure S8b),PBMCs; 2 µM,86 (3×) and 88 and 85 and 81 and 79 and 87
same,PI Positive (Figure S8b),PBMCs; 2 µM,12 and 15 and 14 (3×) and 19 and 21 and 13
same,PI Negative (Figure S8b),PBMCs; 4 µM,87 (2×) and 88 and 85 and 86 and 80 and 79 and 84
same,PI Positive (Figure S8b),PBMCs; 4 µM,12 and 15 and 14 and 20 and 21 and 13 (2×) and 16
same,PI Negative (Figure S8b),PBMCs; 8 µM,86 and 88 and 84 (2×) and 80 and 77 and 85 and 83
same,PI Positive (Figure S8b),PBMCs; 8 µM,12 and 16 (2×) and 20 and 23 and 15 and 17 and 14
same,PI Negative (Figure S8b),PBMCs; 16 µM,86 and 88 and 84 (3×) and 80 and 74 and 81
same,PI Positive (Figure S8b),PBMCs; 16 µM,12 and 16 (3×) and 20 and 26 and 19 and 14
same,PI Negative (Figure S8b),PBMCs; 32 µM,82 and 84 and 79 and 81 and 80
same,PI Positive (Figure S8b),PBMCs; 32 µM,16 and 21 and 19 and 20 and 18
same,PBMC viability relative to 0 µM = 100 (Figure S8a),"PBMCs; PBMC 72H, 0.5 µM, rep1-5",100 and 93 (2×) and 120
same,PBMC viability relative to 0 µM = 100 (Figure S8a),"PBMCs; PBMC 72H, 1 µM, rep1-5",91 and 93 and 110 and 97
same,PBMC viability relative to 0 µM = 100 (Figure S8a),"PBMCs; PBMC 72H, 4 µM, rep1-5",111 and 89 and 93 and 118 and 88
same,PBMC viability relative to 0 µM = 100 (Figure S8a),"PBMCs; PBMC 72H, 8 µM, rep1-5",113 and 75 and 87 and 109 and 93
same,PBMC viability relative to 0 µM = 100 (Figure S8a),"PBMCs; PBMC 72H, 16 µM, rep1-5",109 and 80 and 83 and 90
same,PBMC viability relative to 0 µM = 100 (Figure S8a),"PBMCs; PBMC 72H, 32 µM, rep1-5",104 and 88 and 82 and 76 and 96
same,PBMC viability relative to 0 µM = 100 (Figure S8a),"PBMCs; PMBC 24H, 0.5 µM, rep1-4",100 and 97 (2×)
same,PBMC viability relative to 0 µM = 100 (Figure S8a),"PBMCs; PMBC 24H, 1 µM, rep1-4",94 and 95
same,PBMC viability relative to 0 µM = 100 (Figure S8a),"PBMCs; PMBC 24H, 2 µM, rep1-4",97
same,PBMC viability relative to 0 µM = 100 (Figure S8a),"PBMCs; PMBC 24H, 4 µM, rep1-4",97 and 96
same,PBMC viability relative to 0 µM = 100 (Figure S8a),"PBMCs; PMBC 24H, 8 µM, rep1-4",105
same,PBMC viability relative to 0 µM = 100 (Figure S8a),"PBMCs; PMBC 24H, 32 µM, rep1-4",104
same,effect on healthy PBMCs,PBMCs; up to a maximum dose tested of 32 µM,no effect
same,"viability at 72 h, 1 µM","[1]; PBMC 72H, 1 µM, rep1-5",103%
same,"viability at 24 h, 0.5 µM","[1]; PMBC 24H, 0.5 µM, rep1-4",99%
same,"viability at 24 h, 1 µM","[1]; PMBC 24H, 1 µM, rep1-4",102%
same,"viability at 24 h, 2 µM","[1]; PMBC 24H, 2 µM, rep1-4",98%
same,"viability at 24 h, 4 µM","[1]; PMBC 24H, 4 µM, rep1-4",101%
same,"viability at 24 h, 8 µM","[1]; PMBC 24H, 8 µM, rep1-4",102%
same,"viability at 24 h, 16 µM","[1]; PMBC 24H, 16 µM, rep1-4",102%
same,"viability at 24 h, 32 µM","[1]; PMBC 24H, 32 µM, rep1-4",101%
CCCCCCCCc1ccc(OCC(=O)c2nc(C(=O)OC)cs2)cc1 [GK470],cPLA2α % Inhib,recombinant human cPLA2α; 0.091 mole fraction,>90%
same,cPLA2α XI(50),recombinant human cPLA2α; XI(50) ± stdev,0.011 ± 0.005 mole fraction
